According to publication PMC6071731 (2018):

Experiments:
[1] = test system: 22AG (DNA, G4) AGGGTTAGGGTTAGGGTTAGGG; test: photometric titration; conditions: 95 mM K+; potassium phosphate buffer, 5% DMSO, pH 7.0; ligand 20 μM; DNA concentration in oligonucleotide
[2] = test system: 22AG (DNA, G4) AGGGTTAGGGTTAGGGTTAGGG; test: fluorimetric titration; conditions: 95 mM K+; potassium phosphate buffer, 5% DMSO, pH 7.0; ligand 20 μM; DNA concentration in oligonucleotide

Row | Kb [1] [M⁻¹] | Kb [2] [M⁻¹] | SMILES
1 | 16000 |  | CN(C)c1ccc(C#Cc2ccc3c[n+]4ccccc4cc3c2)cc1
2 |  | 220000 | C(#Cc1ccc2c[n+]3ccccc3cc2c1)c1ccccc1
3 | 26000 |  | COc1ccc(C#Cc2ccc3c[n+]4ccccc4cc3c2)cc1
4 |  | 30000 | C(#Cc1cc2ccccc2c2ccccc12)c1ccc2c[n+]3ccccc3cc2c1
